# Results reported in patent publication US20260243940A1, “COMPOUND, POLYMERIZABLE COMPOSITION, CURED PRODUCT, OPTICAL FILM, POLARIZING PLATE, AND IMAGE DISPLAY DEVICE” (FUJIFILM Corporation, priority 2019, published 2026).
# Assays:
# [1] = Solubility in cyclopentanone; assay type: physicochemical; conditions: for Solubility: heated and stirred at 50° C. for 1 minute, left at 20° C. for 10 minutes, concentration lowered from 40% in 5% steps
# Method: Cyclopentanone was added to 25 mg of each synthesized compound so that the concentration of each compound was 40% by mass, and the mixture was heated and stirred at 50° C. for 1 minute.
# Then, the mixture was left to stand at 20° C. for 10 minutes, and in a case where there is no undissolved residue or precipitation, it is determined that the mixture can be dissolved at 40% by mass.
# In a case where there was an undissolved residue or precipitation, cyclopentanone was further added to the mixture to reduce the concentration by 5% by mass, an operation of heating and stirring at 50° C. for 1 minute and then leaving the mixture stand at 20° C. for 10 minutes was repeatedly performed until there was no undissolved residue or precipitation, thereby confirming the solubility.
# [2] = Precipitation suppression (recrystallization temperature on cooling, hot stage under polarizing microscope); assay type: physicochemical; conditions: for Precipitation suppression: class by recrystallization temperature, heated to isotropic phase, then lowered at 5° C./min
# Method: Two polarizers of an optical microscope (ECLIPSE E600 POL, manufactured by Nikon Corporation) were arranged so that they were orthogonal to each other, and a sample stand was set between the two polarizers.
# Then, a small amount of each synthesized compound was placed on a slide glass, and the slide glass was set on a hot stage placed on a sample stand. While observing the state of the sample with a microscope, the temperature of the hot stage was raised at 5° C./min, and the type of liquid crystal phase and the temperature at which phase transition occurred were recorded from the state of the sample.
# In addition, for the recrystallization temperature, the temperature was elevated up to an isotropic phase and then lowered at 5° C./min, and a temperature at which crystals were precipitated was recorded.
# Based on the results of the recrystallization temperature measured by the above-mentioned method for evaluating the phase transition temperature, the evaluation was made according to the following standard. The results are shown in Table 3 below. • A: Lower than 50° C. • B: 50° C. or higher and 100° C. or lower • C: Higher than 100° C. and 150° C. or lower • D: Higher than 150° C. and 180° C. or lower
Compound,Solubility [1],Precipitation suppression [2],solubility (in words) ([1]; summary of Table 3),precipitation suppression (in words) ([2]; summary of Table 3)
C=CC(=O)OCCCCOC(=O)C1CCC(C2CCC(C(=O)Oc3ccc(OC(=O)C4CCC(C5CCC(C(=O)OCCCCOC(=O)C=C)CC5)CC4)c4ccccc34)CC2)CC1 (centres unmarked) [Compound 1-1],20 % by mass,D (Higher than 150 °C and 180 °C or lower),,
C=CC(=O)OCCCCOC(=O)C1CCC(C2CCC(C(=O)Oc3cc(OC)c(OC(=O)C4CCC(C5CCC(C(=O)OCCCCOC(=O)C=C)CC5)CC4)c4ccccc34)CC2)CC1 (centres unmarked) [Compound 1-3],20 % by mass,C (Higher than 100 °C and 150 °C or lower),,
C=CC(=O)OCCCCOC(=O)C1CCC(C2CCC(C(=O)Oc3ccc(OC(=O)C4CCC(C5CCC(C(=O)OCCCCOC(=O)C=C)CC5)CC4)c4c(C)cccc34)CC2)CC1 (centres unmarked) [Compound 1-7],25 % by mass,C (Higher than 100 °C and 150 °C or lower),,
C=CC(=O)OCCCCOc1ccc(C(=O)Oc2ccc(C(=O)Oc3ccc(OC(=O)c4ccc(OC(=O)c5ccc(OCCCCOC(=O)C=C)cc5)cc4)c4c(OC(C)=O)cccc34)cc2)cc1 [Compound 2-2],15 % by mass,C (Higher than 100 °C and 150 °C or lower),,
C=CC(=O)OCCCCOC(=O)C1CCC(C2CCC(C(=O)Oc3cc(C)c(OC(=O)C4CCC(C5CCC(C(=O)OCCCCOC(=O)C=C)CC5)CC4)c4ccccc34)CC2)CC1 (centres unmarked) [Compound 1-2],25 % by mass,C (Higher than 100 °C and 150 °C or lower),,
C=CC(=O)OCCOCCOCCOC(=O)C1CCC(C2CCC(C(=O)Oc3ccc(OC(=O)C4CCC(C5CCC(C(=O)OCCOCCOCCOC(=O)C=C)CC5)CC4)c4c(OC(C)=O)cccc34)CC2)CC1 (centres unmarked) [Compound 1-15],>40 % by mass,A (Lower than 50° C.),,
C=CC(=O)OCCCCOC(=O)C1CCC(C2CCC(C(=O)Oc3ccc(OC(=O)C4CCC(C5CCC(C(=O)OCCCCOC(=O)C=C)CC5)CC4)c4c(OCC)ccc(OCC)c34)CC2)CC1 (centres unmarked) [Compound 1-16],>40 % by mass,A (Lower than 50° C.),,
C=CC(=O)OCCCCOC(=O)C1CCC(C2CCC(C(=O)Oc3ccc(OC(=O)C4CCC(C5CCC(C(=O)OCCCCOC(=O)C=C)CC5)CC4)c4cc(C)ccc34)CC2)CC1 (centres unmarked) [Compound 1-6],35 % by mass,C (Higher than 100 °C and 150 °C or lower),,
C=CC(=O)OCCCCOC(=O)C1CCC(C2CCC(C(=O)Oc3ccc(OC(=O)C4CCC(C5CCC(C(=O)OCCCCOC(=O)C=C)CC5)CC4)c4c(OCCCC)cccc34)CC2)CC1 (centres unmarked) [Compound 1-9],20 % by mass,A (Lower than 50° C.),,
C=CC(=O)OCCCCOC(=O)C1CCC(C2CCC(C(=O)Oc3ccc(OC(=O)C4CCC(C5CCC(C(=O)OCCCCOC(=O)C=C)CC5)CC4)c4c(OS(C)(=O)=O)cccc34)CC2)CC1 (centres unmarked) [Compound 2-3],25 % by mass,A (Lower than 50° C.),,
C=CC(=O)OCCCCOC(=O)C1CCC(C2CCC(C(=O)Oc3ccc(OC(=O)C4CCC(C5CCC(C(=O)OCCCCOC(=O)C=C)CC5)CC4)c4c(OC(C)=O)ccc(OC(C)=O)c34)CC2)CC1 (centres unmarked) [Compound 1-17],20 % by mass,C (Higher than 100 °C and 150 °C or lower),,
C=CC(=O)OCCCCOC(=O)C1CCC(OC(=O)C2CCC(C(=O)Oc3ccc(OC(=O)C4CCC(C(=O)OC5CCC(C(=O)OCCCCOC(=O)C=C)CC5)CC4)c4ccccc34)CC2)CC1 (centres unmarked) [Compound 2-1],10 % by mass,C (Higher than 100 °C and 150 °C or lower),,
"C=CC(=O)OCCCCOc1ccc(C(=O)Oc2ccc(OC(=O)c3ccc(OC(=O)c4ccc(OC(=O)c5ccc(OCCCCOC(=O)C=C)cc5)cc4)c(C)c3)cc2)cc1 [compound 2, reference compound]",<5 % by mass,C (Higher than 100 °C and 150 °C or lower),deteriorated,deteriorated
C=CC(=O)OCCCCOC(=O)C1CCC(C2CCC(C(=O)Oc3ccc(OC(=O)C4CCC(C5CCC(C(=O)OCCCCOC(=O)C=C)CC5)CC4)c4c(OC(C)=O)cccc34)CC2)CC1 (centres unmarked) [Compound 1-11],35 % by mass,A (Lower than 50° C.),,
C=CC(=O)OCCCCOC(=O)C1CCC(C2CCC(C(=O)Oc3cc(OCC)c(OC(=O)C4CCC(C5CCC(C(=O)OCCCCOC(=O)C=C)CC5)CC4)c4ccccc34)CC2)CC1 (centres unmarked) [Compound 1-4],>40 % by mass,B (50 °C or higher and 100 °C or lower),,
C=CC(=O)OCCOC(=O)C1CCC(C2CCC(C(=O)Oc3ccc(OC(=O)C4CCC(C5CCC(C(=O)OCCOC(=O)C=C)CC5)CC4)c4c(OC(C)=O)cccc34)CC2)CC1 (centres unmarked) [Compound 1-13],30 % by mass,A (Lower than 50° C.),,
C=C(C)C(=O)OCCCCOC(=O)C1CCC(C2CCC(C(=O)Oc3ccc(OC(=O)C4CCC(C5CCC(C(=O)OCCCCOC(=O)C(=C)C)CC5)CC4)c4c(OC(C)=O)cccc34)CC2)CC1 (centres unmarked) [Compound 1-12],35 % by mass,A (Lower than 50° C.),,
C=CC(=O)OCCCCOC(=O)C1CCC(C2CCC(C(=O)Oc3ccc(OC(=O)C4CCC(C5CCC(C(=O)OCCCCOC(=O)C=C)CC5)CC4)c4c(OCC)cccc34)CC2)CC1 (centres unmarked) [Compound 1-8],20 % by mass,B (50 °C or higher and 100 °C or lower),,
C=CC(=O)OCCCCOC(=O)C1CCC(C2CCC(C(=O)Oc3ccc(OC(=O)C4CCC(C5CCC(C(=O)OCCCCOC(=O)C=C)CC5)CC4)c4c(OC(=O)CCl)cccc34)CC2)CC1 (centres unmarked) [Compound 2-4],20 % by mass,A (Lower than 50° C.),,
C=CC(=O)OCCCCOC(=O)C1CCC(C2CCC(C(=O)Oc3cc(C(=O)OC)c(OC(=O)C4CCC(C5CCC(C(=O)OCCCCOC(=O)C=C)CC5)CC4)c4ccccc34)CC2)CC1 (centres unmarked) [Compound 1-5],>40 % by mass,B (50 °C or higher and 100 °C or lower),,
C=CC(=O)OCCCCOC(=O)C1CCC(C2CCC(C(=O)Oc3ccc(OC(=O)C4CCC(C5CCC(C(=O)OCCCCOC(=O)C=C)CC5)CC4)c4c(OCCCCCCCC)cccc34)CC2)CC1 (centres unmarked) [Compound 1-10],30 % by mass,B (50 °C or higher and 100 °C or lower),,
